Reference: patent publication US11744830B2, “Ameliorative agent for cytokine release syndrome and so on” (TORII PHARMACEUTICAL CO., LTD., priority 2018, dated 2023)
Where a name gives a salt, the structure may show the parent alone.

Columns and labels:
[1] = tested on: TNF-α production from CD8^+ T cells; assay: T-cell stimulation bead-induced TNF-α production in CD8^+ T cells; type: cell-based, human; settings: CD3/CD28 stimulation, 3 days
Procedure: (§1) Cryopreserved PBMCs were quickly thawed in a 37° C. thermostat and added to a tube containing medium. After centrifugation (at room temperature at 300 g for 10 minutes) to remove the supernatant, the cells were suspended in the medium, a portion of which was then mixed with a trypan blue solution to count the number of viable cells. The cell suspension was centrifuged (at room temperature at 300 g for 10 minutes) to remove the supernatant, followed by addition of MACS Buffer in a volume of 80 μL per 1×10^7 cells to suspend the cells, to which Human CD8 MicroBeads (20 μL) were further added. After being allowed to stand on ice for 15 minutes, the cell suspension was diluted with MACS Buffer (2 mL) and centrifuged (at room temperature at 300 g for 10 minutes) to remove the supernatant.
MACS Buffer (500 μL) was added to the tube, and the cells were suspended and then applied to a separatory column to separate CD8^+ cells. The CD8^+ cell fraction was diluted to 15 mL with the medium and then centrifuged (at room temperature at 300 g for 10 minutes). The supernatant was removed and the cells were suspended in the medium (1 mL), followed by counting the number of viable cells. The cell suspension adjusted with the medium to 1×10^6 cells/mL was seeded in a 96-well plate in a volume of 100 μL/well (1×10^5 cells/well) and allowed to stand in a CO2 incubator for 1 to 2 hours.
The culture supernatants collected in 1.2.1 were quantified for TNF-α using Human TNF-α DuoSet ELISA.

[2] = tested on: IL-6 production from CD14^+ cells; assay: LPS stimulation-induced IL-6 production in CD14^+ cells; type: cell-based, human; settings: for IC50: Homo sapiens, 72 h, CD14^+ cells, LPS 3 ng/mL, 3 days
Procedure: as §1, with “suspended again” for “suspended”, “followed by counting” for “a portion of which was then mixed with a trypan blue solution to count”, “Buffer” for “Buffer in a volume of 80 μL per 1×10^7 cells”, “CD14” for “CD8”, “MicroBeads” for “MicroBeads (20 μL)”, “Buffer” for “Buffer (2 mL)”
(§2) MACS Buffer was added to the tube, and the cells were suspended and then applied to a separatory column to separate CD14^+ cells. The CD14^+ cell fraction was diluted with the medium and then centrifuged (at room temperature at 300 g for 10 minutes). The supernatant was removed and the cells were suspended in the medium (1 mL), followed by counting the number of viable cells. The cell suspension was adjusted with the medium to 2.4×10^5 or 3×10^5 cells/mL and seeded in a 96-well plate (2.4×10^4 cells/well), which was then allowed to stand in a CO2 incubator for 1 to 2 hours.
The collected culture supernatants were quantified for IL-6 using Human IL-6 DuoSet ELISA.

[3] = tested on: TNF-α production from CD14^+ cells; assay: LPS stimulation-induced TNF-α production in CD14^+ cells; type: cell-based, human; settings: for IC50: LPS 3 ng/mL, 3 days
Procedure: as §1, with “suspended again” for “suspended”, “followed by counting” for “a portion of which was then mixed with a trypan blue solution to count”, “Buffer” for “Buffer in a volume of 80 μL per 1×10^7 cells”, “CD14” for “CD8”, “MicroBeads” for “MicroBeads (20 μL)”, “Buffer” for “Buffer (2 mL)”
as §2
(§3) The culture supernatants collected in 1.2.2 were quantified for TNF-α using Human TNF-α DuoSet ELISA.

[4] = tested on: TNF-α production in PBMCs; assay: LPS stimulation-induced TNF-α production in PBMCs; type: cell-based; settings: Homo sapiens, PBMC
Procedure: Cryopreserved PBMCs were quickly thawed in a 37° C. thermostat and added to a tube containing medium. After centrifugation (at room temperature at 300 g for 10 minutes) to remove the supernatant, the cells were suspended again in the medium (10 mL), followed by counting the number of viable cells. After centrifugation (at room temperature at 300 g for 10 minutes) to remove the supernatant, the medium was added to suspend the cells at 1×10^6 cells/mL. This cell suspension was seeded in a 96-well plate in a volume of 100 μL/well (1×10^5 cells/well). […] The cells were cultured in a CO2 incubator for 3 days to collect the culture supernatants.
as §3

[5] = tested on: IL-6 production from PBMCs; assay: T-cell stimulation bead- and LPS stimulation-induced CRS toxicity evaluation system in PBMCs: IL-6; type: cell-based, human; settings: CD3/CD28 + LPS; for IC50: Homo sapiens, PBMC, 72 h, 3 days
Procedure: Cryopreserved PBMCs were quickly thawed in a 37° C. thermostat and added to a tube containing medium. After centrifugation (at room temperature at 300 g for 10 minutes) to remove the supernatant, the cells were suspended again in the medium (10 mL), followed by counting the number of viable cells. After centrifugation (at room temperature at 300 g for 10 minutes) to remove the supernatant, the medium was added to suspend the cells at 1×10^6 cells/mL. This cell suspension was seeded in a 96-well plate in a volume of 100 μl/well (1×10^5 cells/well) and allowed to stand in a CO2 incubator for 1 to 2 hours.
The cells were cultured in a CO2 incubator for 3 days to collect the culture supernatants.
(§4) The collected culture supernatants were quantified for IFN-γ and IL-6 using Human IFN-γ DuoSet ELISA and Human IL-6 DuoSet ELISA.

[6] = tested on: IL-6 production in CD4^+ T cell-depleted PBMCs; assay: T-cell stimulation bead- and LPS stimulation-induced CRS toxicity evaluation system in CD4^+ T cell-depleted PBMCs: IL-6; type: cell-based, human; settings: for IC50: Homo sapiens, 72 h, 3 days
Procedure: Cryopreserved human PBMCs were quickly thawed in a 37° C. thermostat and added to a tube containing medium. After centrifugation (at room temperature at 300 g for 10 minutes) to remove the supernatant, the cells were suspended again in the medium (10 mL), followed by counting the number of viable cells. The remainder of the cell suspension was centrifuged (at room temperature at 300 g for 10 minutes) to remove the supernatant, followed by addition of MACS Buffer in a volume of 80 μL and Human CD4 MicroBeads in a volume of 20 μL per 1×10^7 cells to suspend the cells. After being allowed to stand on ice for 15 minutes, the cell suspension was diluted with MACS Buffer (2 mL) and centrifuged (at room temperature at 300 g for 10 minutes) to remove the supernatant. MACS Buffer (500 μL) was added to the tube, and the cells were suspended and then applied to a separatory column to separate CD4^− cells (a pass-through fraction of CD4^+ cells). The CD4^− cell fraction was diluted to 15 mL with the medium and then centrifuged (at room temperature at 300 g for 10 minutes) to remove the supernatant, and the cells were then suspended again in the medium (1 mL), followed by counting the number of viable cells. The cell suspension adjusted with the medium to 1×10^6 cells/mL was seeded in a 96-well plate in a volume of 100 μl/well (1×10^5 cells/well) and allowed to stand in a CO2 incubator for 1 to 2 hours.
as §4

IC50 [1]	IC50 [3]	Structure (SMILES)	IC50 ([1]; Homo sapiens, T-cell, 72 h)	IC50 [2]	IC50 ([3]; Homo sapiens, 72 h)	IC50 [4]	IC50 [5]	IC50 ([6]; CD3/CD28 + LPS)	suppression of IL-6 production ([6]; T-cell stimulation beads and LPS)	IC50 ([1]; dihydrochloride)	Ratio (IL-6/IFN-γ) of IC50 values ([2]; CD14^+ cells (IL-6) / CD8^+ T cells (IFN-γ))	suppressive effect on TNF-α production ([3]; LPS)	Ratio (IL-6/IFN-γ) of IC50 values [5]	Ratio (IL-6/IFN-γ) of IC50 values ([6]; CD3/CD28 + LPS)
35 nM	42 nM	C[C@]12C=CC(=O)C=C1CC[C@@H]1[C@@H]2[C@@H](O)C[C@@]2(C)[C@H]1CC[C@]2(O)C(=O)CO [PSL, Prednisolone]	34.8 nM	151 nM	41.7 nM	73 nM	3570 nM	> 30000 nM	did not suppress					
		CCOC(=O)[C@H](Cc1ccccc1)NC(=O)c1cc(Cl)c(OCCN2CCN(C)CC2)c(Cl)c1O [JTE-607, (−)-ethyl N-{3,5-dichloro-2-hydroxy-4-[2-(4-methylpiperazin-1-yl)ethoxy]benzoyl}-L-phenylalaninate dihydrochloride]	231 nM	52.9 nM	> 300 nM	30.7 nM	40.4 nM	42.2 nM		231 nM	<0.18	suppressive effect in a manner dependent on its concentration added	0.81	0.52
